Assay results as given in patent US20140142168A1, “METHODS AND PHARMACEUTICAL COMPOSITIONS FOR THE TREATMENT OF HORMONE-REFRACTORY PROSTATE CANCERS” (CENTRE JEAN PERRIN, priority 2011, published 2014).
Where two headings read alike, the source gives them in different places.

Legend:
[1] = Blood levels after administration; assay type: in vivo; conditions: human
Experimental: It was deduced from the investigator data that 1 h after administration of 75 mg/m2 of DTX, blood levels of DTX can reach 3.75 μM.

PC3 cells = experiment: PC3 survival at end of treatment; assay type: cell-based, human; conditions: 2 h 3.75 μM DTX then 70 h drug-free medium, with or without 2 days of repeated 0.25 μM curcumin pretreatment
Experimental: The PC3 line is a human p-53 defective HRPC line displaying high SphK1 activity. To mimic the effect of treatment, 10,000 PC3 cells were seeded in each well of 24-well plates and maintained in DMEM containing 10% FBS (complete medium) overnight. […] Indeed, in these experiences PC3 cells were treated the first day for 2 h at 7 h AM and maintained in DFM until 12 h AM (5h). […] As previously, the cells were maintained in DFM for 70 h in DFM after DTX treatment.
PC3 survival was determined at the end of treatment 1 and 3. Telomerase activity was determined in survived cells by Trap assay at the end of treatment 1, 2 and 3.

patients with HRPC = conditions: docetaxel-treated patients, reference randomized study; cited from earlier work

SMILES	concentration at 1 h ([1]; blood, intravenous, 1 h after administration of 75 mg/m2, deduced from the investigator data, read-out: blood levels of DTX) [nM]	number of survived cells (PC3 cells) [%]	PSA response (patients with HRPC) [%]	objective tumor response (patients with HRPC) [%]	concentration at 1 h ([1]; in vivo) [nM]
CC(=O)O[C@@]12CO[C@@H]1C[C@H](O)[C@@]1(C)C(=O)[C@H](O)C3=C(C)[C@@H](OC(=O)[C@H](O)[C@@H](NC(=O)OC(C)(C)C)c4ccccc4)C[C@@](O)([C@@H](OC(=O)c4ccccc4)[C@H]21)C3(C)C [Docetaxel, (2R,3S)-N-carboxy-3-phenylisoserine, N-tert-butyl ester, 13-ester with 5, 20-epoxy-1,2,4,7, 10, 13-hexahydroxytax-11-en-9-one 4-acetate 2-benzoate, trihydrate]	3750	90±5	45	12	
COc1cc(/C=C/C(=O)CC(=O)/C=C/c2ccc(O)c(OC)c2)ccc1O [curcumin, (1E,6E)-1,7-bis (4-hydroxy-3-methoxyphenyl)-1,6-heptadiene-3 ,5-dione]					100 to 450
